From US10648012B2, “Assay for inhibitors of equilibrative or concentrative nucleoside transporters” (ALBERT EINSTEIN COLLEGE OF MEDICINE OF YESHIVA UNIVERSITY, priority 2013, dated 2020)
Where two headings read alike, the source gives them in different places.

Assays:
PfENT1 [1] = biological target: T1, PfENT1 (Plasmodium falciparum, UniProt Q8IDM6); conditions: cited from earlier work
T1 sequence (Q8IDM6 1-422): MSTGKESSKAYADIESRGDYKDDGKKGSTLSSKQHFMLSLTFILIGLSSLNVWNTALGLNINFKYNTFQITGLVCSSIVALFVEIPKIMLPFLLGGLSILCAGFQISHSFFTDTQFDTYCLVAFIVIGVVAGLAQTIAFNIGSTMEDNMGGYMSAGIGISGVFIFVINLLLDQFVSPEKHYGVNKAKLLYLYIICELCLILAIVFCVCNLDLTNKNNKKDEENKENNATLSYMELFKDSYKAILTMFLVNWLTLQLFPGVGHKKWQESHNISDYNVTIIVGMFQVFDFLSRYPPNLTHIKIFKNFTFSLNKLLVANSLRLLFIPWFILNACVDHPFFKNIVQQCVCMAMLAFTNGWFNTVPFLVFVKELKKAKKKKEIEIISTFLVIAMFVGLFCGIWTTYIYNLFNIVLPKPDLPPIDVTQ

PfENT1 [2] = biological target: T1, PfENT1; experiment: Inhibition of [3H]-adenine uptake by PfENT1-expressing Xenopus oocytes; assay type: cell-based; conditions: increasing concentrations of 5-FUrd
fui1Δ yeast = experiment: 5-FUrd cytotoxicity assay, growth (OD600) of parental fui1Δ yeast; assay type: cell-based; conditions: Saccharomyces cerevisiae, 9.5 h, read-out: 5-FUrd IC50 for killing
Experimental: (§1) Concentration dependence of 5-FUrd cytotoxic effects on PfENT1-expressing fui1Δ S. cerevisiae and on the parental fui1Δ strain: To determine the dose-response relationship for killing by 5 FUrd, 200 μl cultures in rich media (yeast extract, peptone, 2% dextrose, YPD) were inoculated with 3×10^6 cells/ml of PfENT1-expressing fui1Δ yeast and fui1Δ yeast. The cultures were grown in 96-well microtiter plates at 30° C., without shaking, in the absence of and in the presence of increasing concentrations of 5-FUrd (range 0.1-1,000 μM). After 570 minutes, the OD600 was measured using a BioRad Benchmark Plus microplate reader to determine the extent of cell growth. The OD600 was plotted as a function of drug concentration and the IC50 for 5-FUrd was calculated (FIG. 2). […] Though yeast grow optimally with constant aeration, a similar 5-FUrd IC50 was obtained for PfENT1-expressing fui1Δ yeast whether the plate was shaken continuously at 200 rpm or unshaken for 570 minutes of growth (IC50=9 μM).

[3] = 5-FUrd stability under the assay growth conditions; assay type: physicochemical; conditions: 30° C.
Experimental: 5-FUrd Stability. Stability of 5-FUrd under the assay conditions is essential. The assay will involve yeast growth in the presence of 5-FUrd for 10-16 hrs at 30° C. To test 5-FUrd stability a sample of 5-FUrd was split into two aliquots. One was stored at −20° C. and the other at 30° C. for 90 hrs. The 5-FUrd IC50 was then determined for WT yeast as described above. […] Thus, 5-FUrd is stable under the assay growth conditions for at least 90 hrs. The assay should only require 10-16 hrs of growth, so 5-FUrd is stable on the timescale of the assay.

[4] = tested on: PfENT1-expressing fui1Δ yeast; experiment: 5-FUrd cytotoxicity assay, growth (OD600) of PfENT1-expressing fui1Δ yeast; assay type: cell-based; conditions: Saccharomyces cerevisiae, 9.5 h
Experimental: as §1

WT yeast = experiment: 5-FUrd IC50 on WT yeast after storage of the 5-FUrd sample; assay type: cell-based; conditions: Saccharomyces cerevisiae, 90 h
Experimental: as §1
5-FUrd Stability. Stability of 5-FUrd under the assay conditions is essential. The assay will involve yeast growth in the presence of 5-FUrd for 10-16 hrs at 30° C. To test 5-FUrd stability a sample of 5-FUrd was split into two aliquots. One was stored at −20° C. and the other at 30° C. for 90 hrs. The 5-FUrd IC50 was then determined for WT yeast as described above. […]

OCCN(CCO)c1nc(N2CCCCC2)c2nc(N(CCO)CCO)nc(N3CCCCC3)c2n1 [dipyridamole]
inhibition of PfENT1 (PfENT1 [1]): do not inhibit

O=c1[nH]c(=O)n([C@@H]2O[C@H](CO)[C@@H](O)[C@H]2O)cc1F [5-FUrd, 5-fluorouridine]
Ki (PfENT1 [2]): 1100 µM
IC50 (fui1Δ yeast): 6400 µM
time stable under the assay growth conditions [3]: at least 90 hrs
IC50 ([4]; read-out: 5-FUrd IC50, shaken versus unshaken comparison): 9 µM
IC50 ([4]; read-out: 5-FUrd IC50 for killing): 12 µM
IC50 (WT yeast; 5-FUrd sample stored at 30° C. for 90 hrs, n=3): 60 ± 3 µM
IC50 (WT yeast; 5-FUrd sample stored at −20° C. for 90 hrs): 46 ± 2 µM

O=[N+]([O-])c1ccc(CSc2ncnc3c2ncn3[C@@H]2O[C@H](CO)[C@@H](O)[C@H]2O)cc1 [p-nitrobenzylthioinosine]
inhibition of PfENT1 (PfENT1 [1]): do not inhibit

COc1cc(C(=O)OCCCN2CCCN(CCCOC(=O)c3cc(OC)c(OC)c(OC)c3)CC2)cc(OC)c1OC [dilazep]
inhibition of PfENT1 (PfENT1 [1]): do not inhibit
